Where two headings read alike, the source gives them in different places.

Drawing on PMC7939467, “Ascertaining the biochemical function of an essential pectin methylesterase in the gut microbe Bacteroides thetaiotaomicron” (The Journal of Biological Chemistry, 2021), this text covers Km for 2 substances.

One experiment addresses T1, BT1017-SP (Bacteroides thetaiotaomicron, UniProt Q8A900).
T1 construct: gene BT_1017
T1 sequence (Q8A900 21-653): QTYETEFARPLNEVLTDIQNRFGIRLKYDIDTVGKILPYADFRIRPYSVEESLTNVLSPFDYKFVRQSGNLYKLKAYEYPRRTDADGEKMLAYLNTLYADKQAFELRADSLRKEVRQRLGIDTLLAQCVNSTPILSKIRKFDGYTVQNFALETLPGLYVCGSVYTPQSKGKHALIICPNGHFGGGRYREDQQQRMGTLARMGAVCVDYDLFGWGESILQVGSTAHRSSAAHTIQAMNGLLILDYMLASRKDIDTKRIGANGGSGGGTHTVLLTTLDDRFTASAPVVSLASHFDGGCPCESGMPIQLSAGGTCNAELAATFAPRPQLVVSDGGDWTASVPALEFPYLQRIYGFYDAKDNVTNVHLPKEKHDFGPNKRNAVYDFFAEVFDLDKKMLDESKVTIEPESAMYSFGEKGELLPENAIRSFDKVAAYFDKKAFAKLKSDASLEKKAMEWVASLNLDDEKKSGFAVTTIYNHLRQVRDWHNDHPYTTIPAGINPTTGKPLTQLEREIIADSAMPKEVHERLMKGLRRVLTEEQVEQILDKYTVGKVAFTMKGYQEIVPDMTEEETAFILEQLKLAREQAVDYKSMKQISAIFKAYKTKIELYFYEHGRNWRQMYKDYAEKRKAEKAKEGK
Description: coupled spectrophotometric methanol release assay. The conditions noted are these: 1.7 μM enzyme, read-out: BT1017 constructs / BT1017-SP. Format: biochemical. The source says: coupled spectrophotometric methanol release assay on BT1017-SP

A further experiment concerns the target T2, BT1017-CM (Bacteroides thetaiotaomicron, UniProt Q8A900).
T2 construct: gene BT_1017; crystal model residues 20-462 (text also gives module as 20-400); C-terminal His6; E. coli Tuner(DE3)
T2 sequence (Q8A900 20-462): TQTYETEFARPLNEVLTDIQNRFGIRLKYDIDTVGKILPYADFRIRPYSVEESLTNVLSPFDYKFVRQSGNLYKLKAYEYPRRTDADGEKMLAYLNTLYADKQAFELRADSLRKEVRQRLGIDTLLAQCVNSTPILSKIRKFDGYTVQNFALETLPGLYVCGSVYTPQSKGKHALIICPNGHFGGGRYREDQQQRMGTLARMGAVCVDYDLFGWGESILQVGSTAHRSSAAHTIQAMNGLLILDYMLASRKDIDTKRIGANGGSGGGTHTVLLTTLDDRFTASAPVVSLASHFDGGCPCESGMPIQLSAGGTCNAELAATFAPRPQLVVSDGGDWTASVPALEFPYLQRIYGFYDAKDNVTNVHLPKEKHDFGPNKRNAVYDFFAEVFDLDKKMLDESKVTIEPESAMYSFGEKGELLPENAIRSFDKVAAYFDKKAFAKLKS
Description: coupled spectrophotometric methanol release assay. Particulars: 1.7 μM enzyme, pH and temperature not given (optimum pH 8.5, 37 °C), read-out: BT1017 constructs / BT1017-CM. Format: biochemical. The text has this:
coupled spectrophotometric methanol release assay on BT1017-CM

For “GlcA-β1,4-(2-O-Me-Xyl-α1,3)-Fuc-α1,4-(GalA-β1,3)-Rha-α1,3-Api-β1,2-(Araf-α1,3)-(GalA-α1,4)-GalA [ΔBT1017oligoB]”, the Km at BT1017-SP (0.046–1.38 mM substrate, pH and temperature of the kinetics not stated (optimum pH 8.5, 37 °C)) stood at 200 ± 30 µM; at BT1017-CM (0.046–1.38 mM substrate) it was 400 ± 70 µM.
As for “Rha-α1,3-Api-β1,2-(Araf-α1,3)-(6-O-Me-GalA-α1,4)-GalA [ΔBT1017oligoA]”, the Km on BT1017-SP (0.09–3.47 mM substrate, pH and temperature not given (optimum pH 8.5, 37 °C)) was 3000 ± 400 µM; at BT1017-CM (0.09–3.47 mM substrate), 1000 ± 200 µM.
